Patent EP0099121A2, “Pharmaceutical compositions” (Bristol-Myers Company, priority 1982, dated 1984)

What follows are molecules tested on Gastric Acid Output (assay: Gastric antisecretory activity in the Gastric Fistula Rat (Table 2 title: Two-Hour Pylorus Ligated Rat)). Details: Rattus norvegicus, ip; Route of Administration i.p.; numbers in parentheses are the 95% confidence limits; read-out: ED50.
Type: in vivo, Long Evans rats
Procedure: Male Long Evans rats weighing about 240-260 grams at the time of cannula implantation are used. The design and implantation of the stainless steel cannula into the anterior wall of the fore-stomach are carried out essentially as described by Pare et al. [Laboratory Animal Science, 27, 244 (1977)]. The fistula components are designed and the operative procedure is carried out exactly as described in the above reference. Post operatively the animals are individually housed in solid bottom cages with sawdust and are allowed food and water ad libitum throughout the entire recovery period. Animals are not used for test purposes for at least 15 days after the operative procedure.
The animals are fasted but allowed water ad libitum for 20 hours before the testing procedure is to begin. Immediately prior to collection, the cannula is opened and the stomach washed gently with 30-40 mL of warm saline or distilled water to remove any residual contents. The catheter is then screwed into the cannula in place of the plugging screw and the rat is placed in a clear plastic rectangular cage measuring 40 cm long, 15 cm wide and 13 cm high. The bottom of the cage has a slit approximately 1.5 cm wide and 25 cm long running down the center to accommodate the catheter which hangs through it. In this way the rat is not restricted and can move freely about the cage during collection periods. The remainder of the assay is carried out as described by Ridley et al. [Research Comm. Chem. Path. Pharm., 17, 365 (1977)].
Gastric secretions collected during the first hour after washing the stomach are discarded as they may be contaminated. For oral evaluation, the catheter is then removed from the cannula and replaced with the plugging screw. Water (2 mL/kg) is administered orally via gastric intubation and the animal is returned to the cage for 45 minutes. After this time the plugging screw is removed and replaced with a catheter to which a small plastic vial has been attached to collect the gastric secretions. A two hour sample is collected (this represents the control secretion), the catheter removed and replaced with the plugging screw. The test drug is now administered orally in a volume of 2 mL/kg via gastric intubation. Forty-five minutes later the plugging screw is again removed, replaced with the catheter attached to a small plastic vial and another 2 hour sample is collected. The secretions in the second sample are compared to those of the control sample in order to determine the effects of the test drug.
When test compounds are to be evaluated parenterally, the animal is injected ip or sc with the test compound vehicle in a volume of 2 mL/kg immediately after discarding the initial 60 minute collection. A two hour sample is collected (control secretion) and the animals are injected either ip or sc with the test compound in a volume of 2 mL/kg. An additional two hour sample is collected and its secretions are compared to those of the control period to determing drug effects.
The samples are centrifuged in a graduated tube for volume determination. Titratable acidity is measured by titrating a one mL sample to pH 7.0 with 0.02N NaOH, using an Autoburet and an electrometric pH meter (Radiometer). Titratable acid output is calculated in microequivalents by multiplying the volume in milliliters by the acid concentration in milliequivalents per liter.
Results are expressed as percent inhibition relative to control readings. Dose response curves are constructed and ED values are calculated by regression analyses. At least three rats are used at each dosage level and a minimum of three dosage levels are utilized for determination of a dose response curve.

Going from Cc1[nH]cnc1CSCCNC1=NS(=O)(=O)N=C1NCCSCc1csc(N=C(N)N)n1 [Example 3, 3-{2-[(2-Guanidinothiazol-4-yl)methylthio]ethylanino}-4-{2-[(5-methyl-1H-imidazol-4-yl)methylthio]ethylamino}-1,2,5-thiadiazole 1,1-dioxide] to C#CCNC1=NS(=O)(=O)N=C1NCCSCc1csc(N=C(N)N)n1 [Example 32, 3-{2-[(2-Guanidinothiazol-4-yl)methyithio]ethylamino}-4-(2-propynyl)amino-1,2,5-thiadiazole 1,1-dioxide], the ED50 falls from 0.46 µmol/kg to 0.08 µmol/kg.

In the case of Cc1[nH]cnc1CSCCNC1=NS(=O)(=O)N=C1O [Example 7, 3-Hydroxy-4-{2-[(5-methyl-1H-imidazol-4-yl)methylthio]-ethylamino}-1,2,5-thiadiazole 1,1-dioxide], the ED50 is reported as 31.1 µmol/kg.

Same assay, conditions: Rattus norvegicus, sc; Route of Administration s.c.; numbers in parentheses are the 95% confidence limits; read-out: ED50

CNC1=NS(=O)(=O)N=C1NCCSCc1nc[nH]c1C [Example 2] and CNC1=NS(=O)(=O)N=C1NCCSCc1csc(N(C)C)n1 [Example 127, 3-{2-[(2-Dimethylaminothiazol-4-yl)methylthio]ethylamino}-4-methylamino-1,2,5-thiadiazole 1,1-dioxide] cannot be ordered by ED50: ~100 µmol/kg for the first, > 10 µmol/kg for the second.

Going from CN=C(NC)Nc1nc(CSCCNC2=NS(=O)(=O)N=C2NC)cs1 [Example 125, 3-Methylamino-4-{2-[(2-{2,3-dimethylguanidino)thiazol-4-yl)-methylthio]ethylamino}-1,2,5-thiadiazole 1,1-dioxide] to CNC1=NS(=O)(=O)N=C1NCCSCc1csc(CN(C)C)n1 [Example 33, 3-{2-[(2-Dimethylaminomethyl-4-thiazolyl)methylthio]ethyl-amino}-4-methylamino-1,2,5-thiadiazole 1,1-dioxide], the ED50 falls from ~10 µmol/kg to 0.57 µmol/kg.

First: NC(N)=Nc1nc(CSCCNc2n[s+]([O-])nc2O)cs1 (centres unmarked) [Example 116, 3-{2-[(2-Guanidinothiazol-4-yl)methylthylthio]ethylamino}-4-hydroxy-1,2,5-thiadiazole 1-oxide]
Second: CN=C(N)Nc1nc(CSCCNc2n[s+]([O-])nc2N)cs1 (centres unmarked) [Example 117, 3-Amino-4-{2-[(2-{2-methylguanidino}thiazol-4-yl)methylthio]-ethylamino}-1,2,5-thiadiazole 1-oxide]
The ED50 of the first is higher: > 10 µmol/kg for the first, ~0.5 µmol/kg for the second.

First: COCCNC1=NS(=O)(=O)N=C1NCCSCc1ccc(CN(C)C)o1 [Example 100, 3-{2-[(5-Dimethylaminomethyl-2-furyl)methylthio]ethylamino}-4-(2-methoxyethylamino)-1,2,5-thiadiazole 1,1-dioxide]
Second: CCCNC1=NS(=O)(=O)N=C1NCCSCc1ccc(CN(C)C)o1 [Example 85, 3-{2-[(5-Dimethylaminomethyl-2-furyl)methylthio]ethylamino}-4-propylamino-1,2,5-thiadiazole 1,1-dioxide]
The ED50 of the first is higher: 1.6 µmol/kg for the first, 0.14 µmol/kg for the second.

First: CN(C)Cc1ccc(CSCCNC2=NS(=O)(=O)N=C2N2CCCC2)o1 [Example 101, 3-{2-[(5-Dimethylaminomethyl-2-furyl)methylthio]ethylamino}-4-pyrrolidino-1,2,5-thiadiazole 1,1-dioxide]
Second: CN(C)Cc1ccc(CSCCNC2=NS(=O)(=O)N=C2O)o1 [Example 17, 3-{2-[(5-Dimethylaminomethyl-2-furyl)methylthio]ethylamino}-4-hydroxy^-1,2,5-thiadiazole 1,1-dioxide]
The ED50 of the first is higher: 68 µmol/kg for the first, 33 µmol/kg for the second.

Compared with CN(C)Cc1ccc(CSCCNC2=NS(=O)(=O)N=C2NN)o1 [Example 51], CN(C)Cc1ccc(CSCCNC2=NS(=O)(=O)N=C2NCc2ccccn2)o1 [Example 104, 3-{2-[(5-Dimethylaminomethyl-2-furyl)methylthio]ethylamino}-4-[(2-pyridyl)methylamino]-1,2,5-thiadiazole 1,1-dioxide] is lower in ED50: 55 µmol/kg for the first, 0.61 µmol/kg for the second.

Going from CN(C)Cc1cccc(CSCCNc2n[s+]([O-])nc2N)c1 (centres unmarked) [Example 91, 3-Arnino-4-{2-[(3-{dinethylaninomethyl}henyl)methvlthio}-ethvlamino}-1,2,5-thiadiazole 1-oxide] to CCNc1n[s+]([O-])nc1NCCSCc1ccc(CN(C)C)o1 (centres unmarked) [Example 84, 3-{2-[(5-Dimethylaminomethyl-2-furyl)methylthio]ethylartino}-4-ethylamino-1,2,5-thiadiazole 1-oxide], the ED50 falls from 1.3 µmol/kg to 0.15 µmol/kg.

CNC1=NS(=O)(=O)N=C1NCCSCc1cnc(NC(=N)N)s1 [Example 95, 3-{2-[(2-Guanidinothiazol-5-yl)methylthio]ethylamino}-4-methylamino-1,2,5-thiadiazole 1,1-dioxide] and CNC1=NS(=O)(=O)N=C1NCCSCc1cnc(CN(C)C)s1 [Example 114, 3-{2-[(2-Dimethylaminomethylthiazol-5-yl)methylthio]-ethylamino}-4-methylamino-1,2,5-thiadiazole 1,1-dioxide] are the same in ED50: ~15 µmol/kg for the first, ~15 µmol/kg for the second.

Compared with CN(C)Cc1ccc(CSCCNC2=NS(=O)(=O)N=C2NCc2ccc3c(c2)OCO3)s1 [Example 135, 3-{2-[(5-Dimethylaminomethyl-2-thienyl)methylthio]ethylamino}-4-(3,4-methylenedioxybenzylamino)-1,2,5-thiadiazole 1,1-dioxide], CCNC1=NS(=O)(=O)N=C1NCCSCc1ccc(CN(C)C)s1 [Example 131, 3-{2-[(5-Dimethylaminomethyl-2-thienyl)methylthio]ethylamino}-4-ethylamino-1,2,5-thiadiazole 1,1-dioxide] is lower in ED50: 0.57 µmol/kg for the first, ~0.5 µmol/kg for the second.

First: CN(C)Cc1nc(CSCCNC2=NS(=O)(=O)N=C2N)cs1 [Example 94, 3-A-mino-4-{2-[(2-dinethylaminomethyl-4-thiazolyl)methylthio)-ethylamino}-1,2,5-thiadiazole 1,1-dioxide]
Second: CN(C)Cc1ccc(CSCCNC2=NS(=O)(=O)N=C2N)s1 [Example 111, 3-Amino-4-{2-[(5-dimethylaminomethyl-2-thienyl)methylthio]-ethylamino}-1,2,5-thiadiazole 1,1-dioxide]
The ED50 of the first is lower: 0.44 µmol/kg for the first, 0.64 µmol/kg for the second.

First: CNC1=NS(=O)(=O)N=C1NCCCCc1ccc(CN(C)C)o1 [Example 21, 3-{4-(5-Dimethylaminomethyl-2-furyl)butylamino}-4-methvlamino-1,2,5-thiadiazole 1,1-dioxide]
Second: CNC1=NS(=O)(=O)N=C1NCCCOc1cccc(CN2CCCCC2)c1 [Example 132, 3-Methylamino-4-{3-(3-piperidinomethylphenoxy)propylamino] - 1,2,5-thiadiazole 1,1-dioxide]
The ED50 of the first is higher: 0.3 µmol/kg for the first, 0.025 µmol/kg for the second.

Going from N=C(N)Nc1nc(CSCCNc2n[s+]([O-])nc2NCCSCc2csc(NC(=N)N)n2)cs1 (centres unmarked) [Example 121, 3,4-Bis-{2-[(2-guanidinothiazol-4-yl)methylthio]ethylamino}-1,2,5-thiadiazole 1-oxide] to CNc1nc(CSCCNc2n[s+]([O-])nc2N)cs1 (centres unmarked) [Example 119], the ED50 rises from 0.19 µmol/kg to > 10 µmol/kg.

Compared with NC1=NS(=O)(=O)N=C1NCCCOc1cccc(CN2CCCCC2)c1 [Example 134, 3-Amino-4-[3-(3-piperidinomethylphenoxy)propyiamino]-1,2,5-thiadiazole 1,1-dioxide], Nc1n[s+]([O-])nc1NCCSCc1ccc(CN2CCCCC2)o1 (centres unmarked) [Example 151, 3-Amino-4-{2-.[(5-piperidinomethyl-2-furyl)methylthio]-ethylamino)-1,2,5-thiadiazole 1-oxide] is higher in ED50: 0.024 µmol/kg for the first, 0.9 µmol/kg for the second.

Same assay, conditions: Route of Administration s.c.; numbers in parentheses are the 95% confidence limits

With Nc1n[s+]([O-])nc1NCCCOc1cccc(CN2CCCC2)c1 (centres unmarked) [145 a] the ED50 was 0.056 (0.021-0.18) μmoles/kg.
“3-{2-[(5-Dimethylaminomethyl-2-furyl)methylthio]-ethylamino}-4-pieridino-1,2,5-thiadiazole 1,1-dioxide [Example 102]” showed an ED50 of ~15 µmol/kg.
For CNC1=NS(=O)(=O)N=C1NCCCOc1cccc(CN2CCOCC2)c1 [144 d], the ED50 was 0.91 (0.36-3.2) μmoles/kg.
NC1=NS(=O)(=O)N=C1NCCCOc1cccc(CN2CCOCC2)c1 [146 d] was tested, and the ED50 was 0.28 (0.066-1.21) μmoles/kg.
“3-{2-[(5-Dimethylaminomethyl-2-furyl)methy1thio]ethylamino}-4-dodecylamino-1,2,5-thiadiazole 1,1-dioxide [Example 106]” showed an ED50 of ~80 µmol/kg.
CNC1=NS(=O)(=O)N=C1NCCCOc1cccc(CN2CCC(C)CC2)c1 [144 b] was tested, and the ED50 was 0.025 (0.0087-0.065) μmoles/kg.
